Results as given in BindingDB's records for doi:10.1074/jbc.M113.528695 (St. Paul's Hospital's Centre of Heart and Lung …, 2014).

Target: T1, Nitric oxide synthase, endothelial (Bos taurus, UniProt P29473)
T1 sequence (P29473 whole entry): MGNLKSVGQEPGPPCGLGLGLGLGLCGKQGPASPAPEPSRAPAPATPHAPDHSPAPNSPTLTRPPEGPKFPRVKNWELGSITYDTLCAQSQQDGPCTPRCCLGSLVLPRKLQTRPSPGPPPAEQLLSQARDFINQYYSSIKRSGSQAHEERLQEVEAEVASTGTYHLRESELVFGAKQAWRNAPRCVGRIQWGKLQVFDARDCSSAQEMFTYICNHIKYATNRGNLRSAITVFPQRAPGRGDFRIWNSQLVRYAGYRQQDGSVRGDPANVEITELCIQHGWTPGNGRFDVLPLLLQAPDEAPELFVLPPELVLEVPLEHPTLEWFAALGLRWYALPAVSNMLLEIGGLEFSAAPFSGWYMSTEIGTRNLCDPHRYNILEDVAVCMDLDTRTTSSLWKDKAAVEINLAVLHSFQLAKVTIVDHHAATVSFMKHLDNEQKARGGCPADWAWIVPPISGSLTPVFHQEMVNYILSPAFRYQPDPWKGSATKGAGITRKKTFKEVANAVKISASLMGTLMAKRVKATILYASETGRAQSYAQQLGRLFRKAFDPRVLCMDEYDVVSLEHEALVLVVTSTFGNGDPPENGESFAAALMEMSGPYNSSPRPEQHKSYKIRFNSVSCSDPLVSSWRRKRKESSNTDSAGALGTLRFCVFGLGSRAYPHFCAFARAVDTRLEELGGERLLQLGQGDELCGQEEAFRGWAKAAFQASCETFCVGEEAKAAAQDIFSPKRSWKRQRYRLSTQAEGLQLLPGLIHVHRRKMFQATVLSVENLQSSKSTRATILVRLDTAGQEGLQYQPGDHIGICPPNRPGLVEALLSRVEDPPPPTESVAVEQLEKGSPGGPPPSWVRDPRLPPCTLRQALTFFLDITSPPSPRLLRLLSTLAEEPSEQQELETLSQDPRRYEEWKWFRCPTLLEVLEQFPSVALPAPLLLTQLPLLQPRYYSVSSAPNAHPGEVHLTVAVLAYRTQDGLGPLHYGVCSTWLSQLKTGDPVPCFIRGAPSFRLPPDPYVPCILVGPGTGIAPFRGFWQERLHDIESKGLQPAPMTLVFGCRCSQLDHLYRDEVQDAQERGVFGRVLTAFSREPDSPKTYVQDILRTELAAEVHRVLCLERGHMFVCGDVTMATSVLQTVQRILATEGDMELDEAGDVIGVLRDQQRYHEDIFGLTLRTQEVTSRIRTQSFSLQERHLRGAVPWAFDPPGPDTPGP
Assay: Polarization Assay
Settings: pH 7.5; 25 °C
Procedure: eNOS was diluted to varying concentrations in buffer containing 50 mM inorganic phosphate, 50 mM KCl, and 5 mM DTT, pH 7.5. A spectrophotometer was used to determine the concentration of the fluorescein-labeled peptide using the extinction coefficient for fluorescein (ε492 nm = 79,000 M^-1). Peptides (100 nM) were added to samples containing varying concentrations of eNOS and incubated for 1 h at room temperature. Samples were then plated on 384-well Grenier Bio-One solid black microplates in triplicate. Polarization was measured with a Tecan Infinite M1000 Pro apparatus in fluorescent polarization mode using 470-nm excitation and 515-nm emission filters.

Row | Kd [nM] | Substance
1 | 23 | H-TTATVTKYWF-OH [TTATVTKYWF]
2 | 42 | H-TTFTVTKYWF-OH [TTFTVTKYWF]
